Results: ChEMBL document CHEMBL4814018, “Rationally designed TNF-α inhibitors: Identification of promising cytotoxic agents” (Bioorg Med Chem Lett, 2021)
Activity calls are given as the source filed them. No cut-off for these calls is given here.

Experiments:
[1] = test system: BV-2; test: Cytotoxicity against mouse BV2 cells incubated for 48 hrs by MTT assay; type: cell-based; conditions: BV-2, 48 h
[2] = Therapeutic index, ratio of LC50 for human Panel NCI-60 (60 carcinoma cell lines) to GI50 for human Panel NCI-60 (60 carcinoma cell lines); type: functional
[3] = test system: BV-2; test: Antiinflammatory activity against mouse BV2 cells assessed as reduction in LPS-induced IL6 production at 1 uM by enzyme immunoassay; type: functional, cell-based
[4] = test system: BV-2; test: Antiinflammatory activity against mouse BV2 cells assessed as inhibition of LPS-induced TNFalpha production at 1 uM by enzyme immunoassay; type: functional
[5] = test system: BV-2; test: Antiinflammatory activity against mouse BV2 cells assessed as decrease in LPS-induced NO production at 1 to 5 uM pretreated with compound followed by LPS stimulation incubated for 4 to 48 hrs by enzyme immunoassay; type: functional, cell-based; conditions: dose 1-5 µM, time 4-48 hrs

O=C1COCCN1c1ccc(N2C(=O)C(Cl)C2c2cn(Cc3ccccc3)c3ccccc23)cc1 (stereo not drawn)
IC50 [1]: > 10 µM

O=c1[nH]cc(F)c(=O)[nH]1 [FLUOROURACIL]
TI [2]: >133

C=CCn1cc(C2C(Cl)C(=O)N2c2ccc(N3CCOCC3=O)cc2)c2ccccc21 (stereo not drawn)
IC50 [1]: > 10 µM

O=C1COCCN1c1ccc(N2C(=O)C(Cl)C2c2cn(Cc3ccc4ccccc4c3)c3ccccc23)cc1 (stereo not drawn)
Activity [3]: Active
IC50 [1]: > 10 µM
Activity [4]: Active

C#CCn1cc(C2C(Cl)C(=O)N2c2ccc(N3CCOCC3=O)cc2)c2ccccc21 (stereo not drawn)
Activity [5]: Active
IC50 [1]: > 10 µM
